Earlier results on 5 compounds are cited in publication PMC8801796 (Reproductive Toxicology (Elmsford, N.y.), 2022).

Where two headings read alike, the source gives them in different places.

For series [1], the system named is monkeys, mice, rats, and rabbits. The conditions noted are these: cited from earlier work.
For series [2], the system named is rats, rabbits, and guinea pigs. The conditions noted are these: cited from earlier work.
The test system of series [3] is Big Blue® (cII Locus) transgenic rodent. The settings on record: cited from earlier work.
For the next series, the system named is rabbits. The settings on record: cited from earlier work.
Series [4] has as its system hypoxanthine phosphoribosyltransferase (HPRT) gene. The settings on record: mammalian cell; cited from earlier work.
The test system of series [5] is rats. The settings on record: cited from earlier work.
Series [6] has as its system bacterial reverse mutation. The conditions noted are these: in vitro; cited from earlier work.
Series [7] relates to rats. The conditions noted are these: rat PPND, maternal dosing GD 6 to postpartum day 20; cited from earlier work.

In the case of `NC(=O)c1nc(F)c[nH]c1=O` [FAV, favipiravir], the Teratogenicity result in series [1] was “teratogenesis has been reported”.

Take `NC(=O)c1ncn([C@@H]2O[C@H](CO)[C@@H](O)[C@H]2O)n1` [RBV, ribavirin]: in series [2], the Teratogenicity entry is recorded as “embryocidal and/or teratogenic”.

Take `CC(C)C(=O)OC[C@H]1O[C@@H](n2ccc(NO)nc2=O)[C@H](O)[C@@H]1O` [molnupiravir]: the “Big Blue transgenic rodent mutagenesis assay result” value in series [3] was “negative”. The Developmental toxicity entry in the series on rabbits (rabbits, 400 mg/kg/day) was “no developmental toxicity”; in the series on rabbits (rabbits, 750 mg/kg/day, in the presence of slight maternal toxicity) it was “lower fetal body weights”; in the series with rats [5] (rats, 250 mg/kg/day), “no developmental toxicity”; in the series on rats [5] (rats, 500 mg/kg/day, in the presence of decreased maternal body weight gain), “lower fetal body weights and delayed ossification”; with rats [5] (rats, 1000 mg/kg/day (highest dose)), “severe manifestations of developmental toxicity (malformations and embryo-fetal lethality)”. In series [4], the “HPRT gene mutation assay result” value was “positive”. The Ames assay result in series [6] was “positive”.

In the case of `CCC(CC)COC(=O)[C@H](C)N[P@](=O)(OC[C@H]1O[C@@](C#N)(c2ccc3c(N)ncnn23)[C@H](O)[C@@H]1O)Oc1ccccc1` [remdesivir], the “Effects on embryo-fetal development” value with rabbits (rabbits, up the highest dose tested, 20 mg/kg/day) is listed as “no adverse effects on embryo-fetal development”; in the series with rats [5] (rats, up the highest dose tested, 20 mg/kg/day), “no adverse effects on embryo-fetal development”.

For `CC(C)c1nc(CN(C)C(=O)N[C@H](C(=O)N[C@@H](Cc2ccccc2)C[C@H](O)[C@H](Cc2ccccc2)NC(=O)OCc2cncs2)C(C)C)cs1` [ritonavir], the Fetal malformations entry in the series with rabbits (rabbit EFD, doses of 25, 50, and 110 mg/kg/day) is on record as “no evidence of fetal malformations”; in the series with rats [5] (rat EFD, doses of 15, 35, and 75 mg/kg) it was “no evidence of fetal malformations”. Further, the “Cryptorchidism in postnatal developing rats” value in the series on rats [7] is recorded as “no reports of cryptorchidism”. For the same compound, the “Cryptorchidism in rat EFD study” value in the series with rats [5] (mid (35 mg/kg/day) and high (75 mg/kg/day) doses) was “cryptorchidism was reported”. Further, in the series with rats [5] (rats and/or rabbits, only at the highest dose evaluated in each species, maternally toxic doses), the “Developmental toxicity findings in EFD studies” value was “higher resorptions, lower fetal body weight, ossification delays, and increased skeletal variations”.
